{
  "source": "patent US8518989B2",
  "about": "“Prodrugs of short-chain fatty acids and treatment methods” (Georgia Health Sciences University Research Institute, Inc., priority 2005, dated 2013)",
  "key": {"rat ATB^0,+ [1]": {"target": "T1, rat ATB^0,+ (Rattus norvegicus, UniProt Q334I2)", "T1 sequence (Q334I2 1-640)": "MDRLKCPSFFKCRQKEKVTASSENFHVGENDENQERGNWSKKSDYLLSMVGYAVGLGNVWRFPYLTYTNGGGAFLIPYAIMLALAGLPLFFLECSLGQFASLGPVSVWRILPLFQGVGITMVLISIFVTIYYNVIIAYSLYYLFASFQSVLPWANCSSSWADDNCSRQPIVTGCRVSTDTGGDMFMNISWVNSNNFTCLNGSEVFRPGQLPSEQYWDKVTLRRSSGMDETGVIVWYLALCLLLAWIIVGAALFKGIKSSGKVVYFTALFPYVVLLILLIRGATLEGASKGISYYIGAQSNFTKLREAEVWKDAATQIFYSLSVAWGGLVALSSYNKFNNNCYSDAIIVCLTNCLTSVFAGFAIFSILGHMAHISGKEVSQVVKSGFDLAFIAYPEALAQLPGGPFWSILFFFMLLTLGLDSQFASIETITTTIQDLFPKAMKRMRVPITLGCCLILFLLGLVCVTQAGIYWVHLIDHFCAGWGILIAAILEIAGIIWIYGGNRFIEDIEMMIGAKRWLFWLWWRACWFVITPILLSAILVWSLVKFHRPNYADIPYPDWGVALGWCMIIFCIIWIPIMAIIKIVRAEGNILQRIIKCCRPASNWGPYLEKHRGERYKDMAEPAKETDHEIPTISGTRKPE", "assay": "Inhibition of ATB0,+-mediated 3H-glycine uptake in HRPE cells expressing cloned rat ATB0,+", "format": "cell-based", "conditions": "5 mM; HRPE cells"}, "rat ATB^0,+ [2]": {"target": "T1, rat ATB^0,+", "assay": "Substrate-induced inward currents in Xenopus oocytes expressing rat ATB0,+ (voltage clamp)", "format": "cell-based", "conditions": "5 mM; voltage clamp", "method": "Experiments with HRPE cells were repeated at least three times with three independent transfections and transport measurements made in duplicate in each experiment. Electrophysiological measurements of substrate-induced currents were repeated at least three times with separate oocytes. The data are presented as means±S.E.M. of these replicates. The kinetic parameters, Michaelis constant (Kt) and maximal velocity (Vmax) were calculated by fitting the ATB^0,+-specific transport data to the Michaelis-Menten equation describing a single saturable transport system. Na^+ and Cl^−-activation kinetics were analyzed by fitting the ATB^0,+-specific transport data to the Hill equation for the determination of K0.5 values for Na^+ and Cl^− (concentration of Na^+ and Cl^− necessary for half-maximal activation) and the Hill coefficient (nH; the number of Na^+ or Cl^− ions involved in the activation process). The kinetics parameters were first determined by non-linear regression methods and subsequently confirmed by linear regression methods using the commercially-available computer program SigmaPlot, version 6.0 (SPSS Inc., Chicago, Ill., US).\nTherefore, it was necessary to determine whether or not the α-carboxyl esters of neutral amino acids are transportable substrates for ATB^0,+. For this purpose, we used the X. laevis oocyte expression system. Cloned rat ATB^0,+ was functionally expressed in oocytes by injection of corresponding cRNA, and the transport of substrates via the transporter was monitored by inward currents when the oocytes were exposed to putative substrates under voltage-clamp conditions."}, "[3]": {"system": "MCF7 cells transfected with SMCT1 cDNA", "assay": "Colony formation assay in MCF7 cells transfected with SMCT1 cDNA", "format": "cell-based, human", "conditions": "SMCT1-expressing MCF7 cells"}},
  "data": [
    {"compound": "CC(=O)O", "note": "[acetate]", "values": [
      {"measurement": "Inhibition of ATB0,+-mediated glycine transport (in words)", "setting": "rat ATB^0,+ [1]", "result": "did not inhibit glycine transport"},
      {"measurement": "Inward currents induced in ATB0,+-expressing oocytes (in words)", "setting": "rat ATB^0,+ [2]", "result": "did not induce detectable current"},
      {"measurement": "Effect on cell growth / apoptosis", "setting": "[3]", "result": "no effect on cell growth"}
    ]}
  ]
}
